Source: ChEMBL document CHEMBL1201862, “PubChem BioAssay data set” (2004)
Activity calls are given as the source filed them.

Tests used:
[1] = test system: HEK293; test: cells; format: functional, cell-based; details: Homo sapiens
[2] = Trypanosoma cruzi growth suppression in host cells – NIH3T3 host cells, beta-gal luminescence, confirmation (AID 2044); format: functional, cell-based;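 also: intracellular parasites grown in NIH/3T3 mouse fibroblasts as host cells; luminescent beta-galactosidase reporter signal from transgenic T. cruzi replicating inside host cells; inhibitors lower the luminescence signal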
[3] = test system: HEK293; test: cells; format: functional, cell-based; details: Homo sapiens; remark: listed apart in the source
[4] = target: Nucleotide-binding oligomerization domain-containing protein 2 (Homo sapiens, UniProt Q9HC29); test: inhibition of NOD2-driven NF-kB reporter – cell-based, luminescence, uHTS, HEK293 (AID 1566); format: functional
[5] = test system: HEK293; test: inhibition of NOD1-driven NF-kB reporter – cell-based, luminescence, uHTS, primary screen (AID 1578); format: functional; details: Homo sapiens
[6] = NIH3T3 cell viability loss – ATP luminescence, mouse fibroblasts, counter-screen, dose response (AID 2010); format: functional, cell-based;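 also: cells exposed to compound for about 90 hours before reading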
[7] = test system: HEK293; test: NOD2 signaling inhibitors in MDP-stimulated cells, cell-based, uHTS, luminescence (AID 2001); format: functional; details: Homo sapiens
[8] = test system: HEK293; test: cells; format: functional, cell-based; details: Homo sapiens; remark: listed apart in the source
[9] = target: Ras and Rab interactor 1/Tyrosine-protein kinase ABL1 (Homo sapiens, UniProt P00519+Q13671); format: functional;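 also: biochemical TR-FRET dose-response test measuring inhibition of binding between Rin1 and Abl proteins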
[10] = target: T1, Heat shock factor protein 1 (Mus musculus, UniProt P38532); test: enhancement of HSF1-driven luciferase signal – cell-based, NIH3T3, luminescence, dose retest, confirmation (AID 435004); format: functional;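 also: stress induced by proteasome inhibitor MG132 added 30 min after compound; luciferase reporter driven by HSF1 response element in NIH3T3 cells; actives raise luminescence as potentiators of the MG132 stress response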
T1 sequence (P38532 whole entry): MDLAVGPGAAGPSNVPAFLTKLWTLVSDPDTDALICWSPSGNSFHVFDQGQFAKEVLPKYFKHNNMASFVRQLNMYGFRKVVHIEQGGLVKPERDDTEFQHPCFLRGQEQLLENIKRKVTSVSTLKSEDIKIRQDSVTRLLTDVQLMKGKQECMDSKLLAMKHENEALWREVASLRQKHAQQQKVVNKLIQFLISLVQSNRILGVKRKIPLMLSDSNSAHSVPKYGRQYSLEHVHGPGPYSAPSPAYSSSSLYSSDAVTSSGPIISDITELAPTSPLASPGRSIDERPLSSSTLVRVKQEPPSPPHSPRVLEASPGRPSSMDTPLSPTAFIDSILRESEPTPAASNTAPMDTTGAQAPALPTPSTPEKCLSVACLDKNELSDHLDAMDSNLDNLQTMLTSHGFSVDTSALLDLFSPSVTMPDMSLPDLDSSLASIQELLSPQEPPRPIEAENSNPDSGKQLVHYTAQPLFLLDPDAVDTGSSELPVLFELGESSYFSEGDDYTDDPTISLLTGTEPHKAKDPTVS

[11] = target: T2, Streptokinase A (Streptococcus pyogenes serotype M1, UniProt P10520); test: viability-normalized secreted streptokinase activity reduction – plasminogen activation absorbance, OD405, dose response (AID 1914); format: functional, Streptococcus pyogenes M1 GAS;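 also: secreted streptokinase activity via plasminogen activation per viability signal from cell pellet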
T2 sequence (P10520 whole entry): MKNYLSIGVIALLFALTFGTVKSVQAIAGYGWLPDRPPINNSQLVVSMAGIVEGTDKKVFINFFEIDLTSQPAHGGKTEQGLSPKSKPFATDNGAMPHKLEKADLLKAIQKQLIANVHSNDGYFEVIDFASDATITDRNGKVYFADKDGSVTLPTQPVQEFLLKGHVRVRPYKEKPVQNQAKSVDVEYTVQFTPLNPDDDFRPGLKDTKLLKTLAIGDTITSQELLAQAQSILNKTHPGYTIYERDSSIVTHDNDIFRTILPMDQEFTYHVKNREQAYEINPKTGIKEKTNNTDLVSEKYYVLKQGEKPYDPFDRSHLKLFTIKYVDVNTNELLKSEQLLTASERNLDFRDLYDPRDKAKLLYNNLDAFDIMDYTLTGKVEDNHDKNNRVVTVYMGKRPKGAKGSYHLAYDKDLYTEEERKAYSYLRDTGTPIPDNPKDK

[12] = test system: Streptococcus sp. 'group A'; test: Streptococcus pyogenes SK(-)GAS viability under kanamycin – luminescence, BacTiterGlo, confirmation, counter-screen for streptokinase expression inhibitor project, dose response (AID 1900); format: functional, organism-based
[13] = target: T3, X-box-binding protein 1 (Homo sapiens, UniProt P17861); format: functional, Cricetulus griseus;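 also: confirmatory dose-response counter-screen serving a CHOP assay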
T3 sequence (P17861 whole entry): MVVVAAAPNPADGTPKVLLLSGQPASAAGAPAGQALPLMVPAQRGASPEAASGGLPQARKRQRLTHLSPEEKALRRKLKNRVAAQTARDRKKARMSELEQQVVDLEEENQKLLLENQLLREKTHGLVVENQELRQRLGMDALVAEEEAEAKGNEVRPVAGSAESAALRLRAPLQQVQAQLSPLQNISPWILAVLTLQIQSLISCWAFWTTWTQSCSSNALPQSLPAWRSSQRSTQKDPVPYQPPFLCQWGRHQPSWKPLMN

[14] = test system: Streptococcus; test: GAS UMAA2166 growth inhibition – luminescence, BacTiterGlo, counter-screen for streptokinase expression inhibitor project, dose response (AID 1915); format: functional, organism-based;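 also: potency for reduction of bacterial viability or growth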
[15] = toxicity to human hepatoma HepG2 cells – cell-based, cherry-picked samples, cytotoxicity control, dose response (AID 1159577); format: functional
[16] = P. falciparum Dd2 growth inhibitors, dose response, SYBR Green, cherry-picked samples (AID 1159567); format: functional, cell-based
[17] = target: T4, Estrogen receptor beta (Homo sapiens, UniProt Q92731);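 also: recombinant ER-beta bound to coactivator SRC1 peptide in presence of estradiol agonist; inhibitors block coactivator peptide binding and lower the FRET signal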
[18] = target: T4, Estrogen receptor beta; test: blockers of SRC-3 recruitment to ERβ – biochemical, ELISA, streptavidin-HRP readout, orthogonal assay, confirmation (AID 1060)
[19] = target: T5, Ubiquitin-conjugating enzyme E2 N (Homo sapiens, UniProt P61088); format: functional;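 also: Dose-response confirmation in a TR-FRET assay detecting UBC13-driven polyubiquitin chain formation, inhibition measured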
T5 sequence (P61088 whole entry): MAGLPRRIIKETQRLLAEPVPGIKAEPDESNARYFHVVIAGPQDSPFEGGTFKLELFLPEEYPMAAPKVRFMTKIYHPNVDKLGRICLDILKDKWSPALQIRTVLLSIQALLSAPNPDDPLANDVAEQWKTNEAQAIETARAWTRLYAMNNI

[20] = target: Glucose-6-phosphate 1-dehydrogenase (Homo sapiens, UniProt P11413); test: inhibition of Homo sapiens G6PD, dose series – biochemical, fluorescence, selectivity assay for P. falciparum G6PD inhibitor project, dose response (AID 504792); format: functional
Glucose-6-phosphate 1-dehydrogenase, sequence (P11413 whole entry): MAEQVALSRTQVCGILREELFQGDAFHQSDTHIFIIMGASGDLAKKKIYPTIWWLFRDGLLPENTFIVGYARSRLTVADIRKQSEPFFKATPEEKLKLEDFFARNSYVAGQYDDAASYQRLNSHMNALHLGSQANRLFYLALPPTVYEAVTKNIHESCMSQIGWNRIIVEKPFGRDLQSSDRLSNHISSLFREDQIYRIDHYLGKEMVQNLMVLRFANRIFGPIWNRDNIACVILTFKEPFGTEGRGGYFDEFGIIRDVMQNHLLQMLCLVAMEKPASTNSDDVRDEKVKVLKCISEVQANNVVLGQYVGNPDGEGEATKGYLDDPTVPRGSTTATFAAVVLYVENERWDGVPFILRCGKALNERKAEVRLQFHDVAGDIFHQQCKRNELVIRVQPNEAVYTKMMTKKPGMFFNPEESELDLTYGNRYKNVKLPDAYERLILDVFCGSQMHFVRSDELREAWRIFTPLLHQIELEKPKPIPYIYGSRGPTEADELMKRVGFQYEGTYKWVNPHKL

T4 sequence (Q92731 whole entry): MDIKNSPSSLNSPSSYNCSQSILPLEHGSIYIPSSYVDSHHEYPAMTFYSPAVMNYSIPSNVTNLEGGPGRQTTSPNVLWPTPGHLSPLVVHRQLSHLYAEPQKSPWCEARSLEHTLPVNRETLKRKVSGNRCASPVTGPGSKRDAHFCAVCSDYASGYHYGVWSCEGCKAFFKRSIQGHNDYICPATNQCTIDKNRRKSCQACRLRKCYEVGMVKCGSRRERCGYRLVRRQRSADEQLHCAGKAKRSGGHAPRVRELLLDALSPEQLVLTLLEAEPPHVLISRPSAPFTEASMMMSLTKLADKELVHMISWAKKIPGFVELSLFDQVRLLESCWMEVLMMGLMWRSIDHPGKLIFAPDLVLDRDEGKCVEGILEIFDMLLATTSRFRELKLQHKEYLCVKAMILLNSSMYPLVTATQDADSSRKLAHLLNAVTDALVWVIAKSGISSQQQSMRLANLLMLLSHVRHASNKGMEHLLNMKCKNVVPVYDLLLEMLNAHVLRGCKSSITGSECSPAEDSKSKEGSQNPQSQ
Nucleotide-binding oligomerization domain-containing protein 2, sequence (Q9HC29 whole entry, the tested form may be a part): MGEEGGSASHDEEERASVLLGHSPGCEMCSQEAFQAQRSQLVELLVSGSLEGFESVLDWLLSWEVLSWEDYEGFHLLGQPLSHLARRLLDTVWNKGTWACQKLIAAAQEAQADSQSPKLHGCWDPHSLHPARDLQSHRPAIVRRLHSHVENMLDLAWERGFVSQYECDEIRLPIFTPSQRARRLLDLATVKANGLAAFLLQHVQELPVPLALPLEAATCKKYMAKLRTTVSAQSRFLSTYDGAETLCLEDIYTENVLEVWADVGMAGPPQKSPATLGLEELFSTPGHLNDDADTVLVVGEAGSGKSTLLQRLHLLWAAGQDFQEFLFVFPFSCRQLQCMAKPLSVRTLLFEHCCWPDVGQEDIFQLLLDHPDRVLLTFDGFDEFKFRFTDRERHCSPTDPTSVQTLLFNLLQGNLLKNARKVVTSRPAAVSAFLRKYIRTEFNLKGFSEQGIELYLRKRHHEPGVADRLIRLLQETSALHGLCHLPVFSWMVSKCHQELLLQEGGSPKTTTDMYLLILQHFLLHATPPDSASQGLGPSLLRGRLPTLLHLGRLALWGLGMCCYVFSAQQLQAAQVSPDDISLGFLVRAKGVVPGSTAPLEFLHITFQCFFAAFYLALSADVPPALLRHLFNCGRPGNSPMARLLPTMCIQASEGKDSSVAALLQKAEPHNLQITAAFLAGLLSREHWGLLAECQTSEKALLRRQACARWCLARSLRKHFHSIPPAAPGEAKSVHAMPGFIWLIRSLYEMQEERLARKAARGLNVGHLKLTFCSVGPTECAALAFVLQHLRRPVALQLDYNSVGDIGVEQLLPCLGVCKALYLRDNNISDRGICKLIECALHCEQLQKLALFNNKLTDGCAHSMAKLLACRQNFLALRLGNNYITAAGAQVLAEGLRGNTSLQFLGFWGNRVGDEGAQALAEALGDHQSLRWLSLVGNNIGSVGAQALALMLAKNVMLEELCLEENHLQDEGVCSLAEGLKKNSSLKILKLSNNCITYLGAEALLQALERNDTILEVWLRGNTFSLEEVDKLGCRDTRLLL
Ras and Rab interactor 1/Tyrosine-protein kinase ABL1, sequence (P00519 whole entry): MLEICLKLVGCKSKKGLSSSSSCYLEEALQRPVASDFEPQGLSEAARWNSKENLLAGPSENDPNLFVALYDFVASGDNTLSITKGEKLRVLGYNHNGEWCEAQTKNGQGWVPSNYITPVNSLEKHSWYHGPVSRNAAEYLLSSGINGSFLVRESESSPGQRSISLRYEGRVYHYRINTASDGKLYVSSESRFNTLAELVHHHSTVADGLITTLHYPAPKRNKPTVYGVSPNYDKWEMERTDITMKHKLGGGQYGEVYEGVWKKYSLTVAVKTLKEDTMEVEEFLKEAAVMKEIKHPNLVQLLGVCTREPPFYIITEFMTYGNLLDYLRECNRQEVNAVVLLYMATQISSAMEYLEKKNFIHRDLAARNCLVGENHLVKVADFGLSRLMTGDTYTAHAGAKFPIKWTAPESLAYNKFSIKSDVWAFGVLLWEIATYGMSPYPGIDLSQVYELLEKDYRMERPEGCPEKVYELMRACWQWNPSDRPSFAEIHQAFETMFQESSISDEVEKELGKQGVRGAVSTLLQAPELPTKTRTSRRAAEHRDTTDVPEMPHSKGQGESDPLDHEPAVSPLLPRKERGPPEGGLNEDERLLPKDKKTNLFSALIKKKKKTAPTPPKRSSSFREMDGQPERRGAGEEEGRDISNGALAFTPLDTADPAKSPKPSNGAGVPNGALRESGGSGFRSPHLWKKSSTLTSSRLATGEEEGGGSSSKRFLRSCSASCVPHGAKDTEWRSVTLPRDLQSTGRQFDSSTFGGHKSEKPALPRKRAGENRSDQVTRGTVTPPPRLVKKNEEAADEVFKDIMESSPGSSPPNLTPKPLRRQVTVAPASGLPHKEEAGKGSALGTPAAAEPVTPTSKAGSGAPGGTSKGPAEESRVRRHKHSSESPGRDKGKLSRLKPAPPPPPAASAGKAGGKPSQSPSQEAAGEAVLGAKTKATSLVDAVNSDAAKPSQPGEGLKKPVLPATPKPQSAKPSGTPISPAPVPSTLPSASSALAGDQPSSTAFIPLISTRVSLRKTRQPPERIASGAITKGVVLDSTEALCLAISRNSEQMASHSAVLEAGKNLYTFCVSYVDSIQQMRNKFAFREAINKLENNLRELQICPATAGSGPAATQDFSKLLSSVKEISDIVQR
Ras and Rab interactor 1/Tyrosine-protein kinase ABL1, sequence (Q13671 whole entry): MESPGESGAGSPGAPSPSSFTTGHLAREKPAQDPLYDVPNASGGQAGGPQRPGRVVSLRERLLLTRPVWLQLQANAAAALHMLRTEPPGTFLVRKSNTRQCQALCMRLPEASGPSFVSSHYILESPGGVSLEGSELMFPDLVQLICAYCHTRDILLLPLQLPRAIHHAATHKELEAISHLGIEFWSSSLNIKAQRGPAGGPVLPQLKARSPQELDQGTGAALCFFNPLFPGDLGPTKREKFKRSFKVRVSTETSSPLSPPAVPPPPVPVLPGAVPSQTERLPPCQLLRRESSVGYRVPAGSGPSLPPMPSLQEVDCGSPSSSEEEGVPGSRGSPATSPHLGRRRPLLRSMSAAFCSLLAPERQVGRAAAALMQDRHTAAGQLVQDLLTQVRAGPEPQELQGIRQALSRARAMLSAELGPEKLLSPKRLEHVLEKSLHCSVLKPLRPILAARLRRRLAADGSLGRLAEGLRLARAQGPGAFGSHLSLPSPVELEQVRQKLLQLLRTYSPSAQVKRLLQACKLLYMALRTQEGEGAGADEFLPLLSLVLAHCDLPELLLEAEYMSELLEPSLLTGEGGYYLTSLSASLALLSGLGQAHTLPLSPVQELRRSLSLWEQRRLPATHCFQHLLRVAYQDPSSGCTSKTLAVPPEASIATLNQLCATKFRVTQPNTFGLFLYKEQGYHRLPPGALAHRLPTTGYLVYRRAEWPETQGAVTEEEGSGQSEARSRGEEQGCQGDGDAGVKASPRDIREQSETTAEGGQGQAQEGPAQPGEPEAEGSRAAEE

O=C(Cc1ccc(Br)cc1)Nc1ncc([N+](=O)[O-])s1
IC50 [1]: > 20 µM (inactive)
EC50 [2]: 553 nM (active)
IC50 [3]: 6.55 µM (active)
EC50 [4]: > 20 µM (inactive)
EC50 [5]: 3.15 µM (active)
EC50 [6]: > 60 µM (not active)
IC50 [7]: 7.9 µM (inactive)
IC50 [8]: > 20 µM (inactive)

COc1ccc(C2c3c(nc[nH]c3=O)Oc3nc[nH]c(=O)c32)cc1
IC50 [9]: 2.87 µM (active)

Cc1ccc(C(=O)NC(=C(Cl)Cl)S(=O)(=O)c2ccc(Cl)cc2)cc1
IC50 [1]: > 20 µM (inactive)
EC50 [10]: 7.82 µM (active)
IC50 [3]: 3.42 µM (active)
EC50 [4]: > 20 µM (inactive)
EC50 [5]: 2.2 µM (active)
IC50 [7]: 5.03 µM (inactive)
IC50 [8]: > 20 µM (inactive)

Cc1ccc(-c2nc3cc(NS(=O)(=O)c4ccc(C)cc4)ccc3o2)cc1
EC50 [11]: 5.86 µM (active)
EC50 [12]: 5.82 µM (active)
Absolute IC50 (XBP1) [13]: 10 µM
EC50 [14]: 18.1 µM (active)

CC(C)NC(=O)N1CCCCN2[C@H](CO)[C@@H](c3ccc(C#C[C@@H](C)O)cc3)[C@@H]2C1
AC50 [15]: > 39 µM (inactive)
AC50 [16]: 27.8 µM (active)

CCC1CCc2c(sc(NC(=O)c3ccoc3C)c2C(N)=O)C1 (stereo unspecified)
Absolute IC50 (XBP1) [13]: 10 µM

COc1ccc(NC(=O)CN(c2ccccc2)S(=O)(=O)N(C)C)cc1OC
IC50 [17]: 10.1 µM (active)
IC50 [18]: > 109 µM (not active)

O=C(Nc1ccc2c(c1)OCO2)c1cccc2c1C(=O)N(Cc1cccnc1)C2
IC50 [17]: > 50 µM (not active)
IC50 [18]: 3.13 µM (not active)

O=C(COc1ccc(Cl)cc1)Nc1nc(-c2ccc(S(=O)(=O)N3CCOCC3)cc2)cs1
IC50 [1]: > 20 µM (inactive)
IC50 [3]: 3.9 µM (active)
EC50 [4]: 17 µM (active)
EC50 [5]: 10.3 µM (active)
IC50 [7]: 4.96 µM (active)
IC50 [8]: > 20 µM (inactive)

CN(C(=O)c1ccc(NC(=O)Cc2cccc(NC(=O)C3CCN(C(=O)c4ccccc4)CC3)c2)cc1)C1CC1
IC50 [9]: 15.3 µM (inactive)

CCOc1ccc(C(=O)C(C)OC(=O)c2nc(Cl)ccc2Cl)cc1 (stereo unspecified)
IC50 [19]: > 20 µM (inactive)

CC1(OC(=O)C2CCCC2)C(=O)C=C2C=C(c3ccsc3)N(CC3CC3)C=C2C1=O (stereo unspecified)
IC50 [20]: 64.3 µM (inactive)
